In ChEMBL document CHEMBL1201862, “PubChem BioAssay data set” (2004):
Active and inactive are the calls of the source.

Experiments:
[1] = target: Endoplasmic reticulum aminopeptidase 1 (Homo sapiens, UniProt Q9NZ08); assay: ERAP1 aminopeptidase inhibitors, dose response, biochemical, cherry-pick, set 2, plate reader (AID 743314)
[2] = Luminescence-based cell-based high throughput dose response assay to identify activators of the DAF-12 from the parasite S. stercoralis (ssDAF-12).; assay type: functional
[3] = HEK293T cell cytotoxicity, dose response, cytotoxicity control, CellTiter-Glo luminescence, dry powder, set 20 (AID 1117293); assay type: functional, cell-based; settings: HEK293
[4] = HEK293T cytotoxicity, dose response, cytotoxicity control for miR-122 modulator project, cell-based, activator set, cherry-pick (AID 720690); assay type: functional;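 further: HEK293T human cells scored for general mammalian cytotoxicity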
[5] = HEK293T cytotoxicity, dose response, cytotoxicity control for miR-122 modulator project, cell-based, inhibitor set, cherry-pick, set 2 (AID 720697); assay type: functional
[6] = A549 cell cytotoxicity, dose response, cytotoxicity control, cherry-picks, 26 µM top dose (AID 1053119); assay type: functional, cell-based
[7] = HEK293 cell cytotoxicity, dose response, cytotoxicity control, cherry-picks, set 5 (AID 1053117); assay type: functional, cell-based
[8] = HepG2 cell cytotoxicity, dose response, cytotoxicity control, cherry-picks, set 5 (AID 1053118); assay type: functional, cell-based
[9] = target: Matrix metalloproteinase-14 (Homo sapiens, UniProt P50281); assay: Dose Response confirmation of uHTS hits for a small molecule inhibitors of MT1-MMP activation in a fluorescence assay set 2.; assay type: functional
[10] = target: Nonstructural protein 1 (Influenza A virus, UniProt Q194T2); assay type: functional, Influenza A virus (A/California/07/2009(H1N1))
Sequence of Nonstructural protein 1 (Q194T2 whole entry): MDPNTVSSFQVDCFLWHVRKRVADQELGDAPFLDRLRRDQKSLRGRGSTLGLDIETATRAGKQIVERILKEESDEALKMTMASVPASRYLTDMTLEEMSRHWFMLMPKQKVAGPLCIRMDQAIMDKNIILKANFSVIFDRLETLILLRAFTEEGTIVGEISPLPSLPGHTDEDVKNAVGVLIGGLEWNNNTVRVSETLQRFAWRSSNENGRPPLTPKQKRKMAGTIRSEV

[11] = A375 melanoma cell cytotoxicity, dose response, counter-screen for MITF inhibitor project, CellTiter-Glo luminescence, dry powder, set 2 (AID 624489); assay type: functional, cell-based; settings: A-375;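 further: actives are compounds lowering A375 viability meaning general cytotoxicity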
[12] = A375 melanoma cell viability loss, dose response, counter-screen for MITF inhibitor project, CellTiter-Glo luminescence, dry powder, set 4 (AID 624364); assay type: functional, cell-based; settings: A-375;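 further: A375 melanoma cells are MITF independent so this is a counter screen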
[13] = P. falciparum late gametocyte killing, dose response, luminescence (AID 1117278); assay type: functional, cell-based;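 further: gametocytes exposed to compound for 24 hours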
[14] = Jurkat T cell cytotoxicity, dose response, cytotoxicity control for P. falciparum gametocyte viability project, luminescence (AID 1117277); assay type: functional, cell-based;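 further: potency reflects loss of cellular ATP meaning fewer viable cells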
[15] = target: fMet-Leu-Phe receptor (Homo sapiens, UniProt P21462); assay: FPR ligands, dose response (AID 519); assay type: functional
Sequence of fMet-Leu-Phe receptor (P21462 whole entry): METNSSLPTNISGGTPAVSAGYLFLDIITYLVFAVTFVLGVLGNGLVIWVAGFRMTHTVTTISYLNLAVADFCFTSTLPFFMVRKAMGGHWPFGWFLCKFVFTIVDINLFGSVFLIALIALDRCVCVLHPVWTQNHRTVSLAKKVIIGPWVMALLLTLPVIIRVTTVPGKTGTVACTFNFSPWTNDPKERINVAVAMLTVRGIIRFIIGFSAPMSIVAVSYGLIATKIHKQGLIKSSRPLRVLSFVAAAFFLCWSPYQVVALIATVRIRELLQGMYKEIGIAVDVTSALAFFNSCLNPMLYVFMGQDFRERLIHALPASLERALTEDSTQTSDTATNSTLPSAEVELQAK

[16] = T. cruzi intracellular amastigote growth inhibition, dose response, imaging, CA-I/72 strain, bovine embryo skeletal muscle, dry powder (AID 651885); assay type: functional, cell-based
[17] = NIH/3T3 fibroblast cytotoxicity, dose response, cytotoxicity control, cell-based, plate reader, dry powder, set 2 (AID 652280); assay type: functional; settings: NIH3T3
[18] = T. cruzi growth inhibition in host cells, dose response, cell-based, plate reader, dry powder, set 2 (AID 652275); assay type: functional

Sequence of Endoplasmic reticulum aminopeptidase 1 (Q9NZ08 whole entry): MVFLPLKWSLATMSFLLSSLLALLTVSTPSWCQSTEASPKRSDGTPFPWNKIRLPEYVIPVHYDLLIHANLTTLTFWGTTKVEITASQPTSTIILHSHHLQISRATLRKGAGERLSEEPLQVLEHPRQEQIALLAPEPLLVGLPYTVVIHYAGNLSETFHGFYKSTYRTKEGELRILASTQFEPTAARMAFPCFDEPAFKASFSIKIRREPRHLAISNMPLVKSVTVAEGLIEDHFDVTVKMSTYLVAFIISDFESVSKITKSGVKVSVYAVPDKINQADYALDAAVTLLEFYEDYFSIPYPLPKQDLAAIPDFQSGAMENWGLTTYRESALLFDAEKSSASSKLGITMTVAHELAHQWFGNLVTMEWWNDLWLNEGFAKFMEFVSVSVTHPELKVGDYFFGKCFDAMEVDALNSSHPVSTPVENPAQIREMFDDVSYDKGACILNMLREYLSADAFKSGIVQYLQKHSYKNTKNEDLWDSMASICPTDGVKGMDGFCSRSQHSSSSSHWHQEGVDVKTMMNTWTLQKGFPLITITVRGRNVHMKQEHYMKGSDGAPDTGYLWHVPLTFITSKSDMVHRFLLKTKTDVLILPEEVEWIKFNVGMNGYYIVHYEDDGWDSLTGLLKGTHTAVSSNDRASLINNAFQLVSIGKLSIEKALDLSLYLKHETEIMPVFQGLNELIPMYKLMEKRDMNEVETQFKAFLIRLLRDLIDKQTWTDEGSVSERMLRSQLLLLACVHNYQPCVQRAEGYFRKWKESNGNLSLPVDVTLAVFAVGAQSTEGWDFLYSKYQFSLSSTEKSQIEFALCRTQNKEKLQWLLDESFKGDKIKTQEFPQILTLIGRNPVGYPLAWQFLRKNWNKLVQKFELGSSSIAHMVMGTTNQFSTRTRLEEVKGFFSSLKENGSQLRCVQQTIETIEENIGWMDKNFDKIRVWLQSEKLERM

## CCNC(=O)[C@H]1[C@H](CO)[C@H]2Cn3c(ccc(/C=C/c4ccccc4)c3=O)[C@@H]1N2
[1]
  AC50: 11.3 µM (active)

## CC1=CC(c2ccccc2)=Nc2ccc(C)cc2N1
[2]
  IC50: > 67.5 µM (inactive)

## N#Cc1ccc(S(=O)(=O)Nc2cc(C(F)(F)F)ccc2N2CCCCC2)cc1
[3]
  AC50: 46.1 µM (active)

## CN1C(=O)c2cc(NS(=O)(=O)c3cccc(F)c3)ccc2OC[C@@H]2O[C@@H](CC(=O)NCCN3CCCCC3)CC[C@H]21
[4]
  AC50: 26.1 µM (active)
[5]
  AC50: 254 nM (active)

## CO[C@H]1CN(C)C(=O)c2cc(NC(=O)Nc3ccc(Cl)c(Cl)c3)ccc2OC[C@H](C)NC[C@@H]1C
[6]
  AC50: 12.9 µM (active)
[7]
  AC50: 12.8 µM (active)
[8]
  AC50: 13 µM (active)

## CCN1C(=O)/C(=C2\C=Cc3ccccc3N2CC)SC1=S
[9]
  IC50: > 80 µM (inactive)
[10]
  IC50: 4.15 µM (active)

## O=C(NC1=C(c2ccc(OC(F)(F)F)cc2)C(=O)c2ccccc2C1=O)c1ccccc1F
[11]
  AC50: 30.5 µM (active)
[12]
  AC50: 34.4 µM (active)

## Cc1nccc(O)c1OCc1ccc(Cl)cc1
[13]
  IC50: > 109 µM (inactive)
[14]
  IC50: > 83.3 µM (inactive)

## C=CCn1c(O)cc(=O)nc1SCCCC
[15]
  Ki: 30.3 µM (inactive)

## C[C@@H]1CN([C@@H](C)CO)C(=O)c2cc(-c3cccnc3)cnc2O[C@H]1CN(C)Cc1ccc(Oc2ccccc2)cc1
[16]
  IC50: > 20 µM (inactive)
[17]
  AC50: 11.9 µM (active)
[18]
  AC50: 1.95 µM (active)
